Where two headings read alike, the source gives them in different places.
What was measured:
RIVA cells = experiment: Real Time Glo viability assay, Betalutin and cell cycle inhibitors (Example 2); assay type: cell-based, human; conditions: for viability at 0.1 µM / viability at 1 µM: Homo sapiens, read-out: Growth inhibition (signal treated/control; 1 = no change); for viability at 0.1 µM: drug 100 nM
Protocol: (§1) Cells were split twice a week 1:3-1:5 depending on cell density. […] Real Time Glo was purchased from Promega. 384 well plates were purchased from Greiner Bio-One.
(§2) Cells were treated for 18-20 h with Betalutin at a final concentration of 1 μg/ml and 2 μg/ml in 6-well cell culture plates with shaking. After treatment, PBS was added to the cells, and the cells pelleted. Cells were first resuspended in 1 ml PBS, then washed twice in PBS and finally diluted in growth medium at the desired concentration. All cell lines were treated at a cell concentration of 2.5*10^6 cells/ml.
(§3) Regardless of cell number the culturing volume was 25 μl. For Real Time Glo, the Cell Viability Substrate and NanoLuc® Enzyme were diluted 1:500 in growth medium, and 25 μL of diluted reagents added to each well. All reagents were equilibrated to 37° C. Cells were incubated with the reaction mix for 1 h at 37° C. before the first measurement of luminescence. Measurements were repeated as often as required within 72 h after adding the reagents. Digitonin was added to cells at 200 μg/ml to record background luminescence of dead cells. A Tecan SPARK 10M plate reader was used to measure luminescence, with an integration time set to 1 sec.
(§4) Growth inhibition was calculated by dividing the luminescence signal of the treated cells by the luminescence signal of the control cells for each day of measurement after start of treatment [Table 1].
(§5) To evaluate effects of the drugs alone [(−)Betalutin] and their combination with Betalutin [(+)Betalutin], we calculated the Z-score for each sample (ZdrugX=1-(+)BetalutindrugX/(−)BetalutindrugX), where (+)BetalutindrugX and (−) BetalutindrugX are the measured luminescence intensity values for drug X in presence and absence of Betalutin, respectively. The calculation of Z-score values separately for each plate enabled comparison of results across plates, despite variations between the plates in overall signal intensity.

U2932 cells = experiment: as above; assay type: cell-based, human; conditions: for viability at 0.1 µM / viability at 1 µM: Homo sapiens; for viability at 0.1 µM: U2932, U2932, drug 100 nM
Protocol: as §1, §2, §3, §4, §5

[1] = RIVA, drug 1 μM, +Betalutin, Dy3
[2] = RIVA, drug 1 μM, +Betalutin, Dy4
[3] = RIVA, drug 1 μM, +Betalutin, Dy5
[4] = RIVA, drug 1 μM, +Betalutin, Dy6
[5] = RIVA, drug 1 μM, −Betalutin, Dy3
[6] = RIVA, drug 1 μM, −Betalutin, Dy4
[7] = RIVA, drug 1 μM, −Betalutin, Dy5
[8] = RIVA, drug 1 μM, −Betalutin, Dy6
[9] = (+)Betalutin, Dy3, read-out: Growth inhibition (signal treated/control; 1 = no change)
[10] = (+)Betalutin, Dy4, read-out: Growth inhibition (signal treated/control; 1 = no change)
[11] = (+)Betalutin, Dy5, read-out: Growth inhibition (signal treated/control; 1 = no change)
[12] = (+)Betalutin, Dy6, read-out: Growth inhibition (signal treated/control; 1 = no change)
[13] = (−)Betalutin, Dy3, read-out: Growth inhibition (signal treated/control; 1 = no change)
[14] = (−)Betalutin, Dy4, read-out: Growth inhibition (signal treated/control; 1 = no change)
[15] = (−)Betalutin, Dy5, read-out: Growth inhibition (signal treated/control; 1 = no change)
[16] = (−)Betalutin, Dy6, read-out: Growth inhibition (signal treated/control; 1 = no change)
[17] = U2932, U2932, drug 1 μM, (+)Betalutin, Dy3, read-out: Growth inhibition (signal treated/control; 1 = no change)
[18] = U2932, U2932, drug 1 μM, (+)Betalutin, Dy4, read-out: Growth inhibition (signal treated/control; 1 = no change)
[19] = U2932, U2932, drug 1 μM, (+)Betalutin, Dy5, read-out: Growth inhibition (signal treated/control; 1 = no change)
[20] = U2932, U2932, drug 1 μM, (+)Betalutin, Dy6, read-out: Growth inhibition (signal treated/control; 1 = no change)
[21] = U2932, U2932, drug 1 μM, (−)Betalutin, Dy3, read-out: Growth inhibition (signal treated/control; 1 = no change)
[22] = U2932, U2932, drug 1 μM, (−)Betalutin, Dy4, read-out: Growth inhibition (signal treated/control; 1 = no change)
[23] = U2932, U2932, drug 1 μM, (−)Betalutin, Dy5, read-out: Growth inhibition (signal treated/control; 1 = no change)
[24] = U2932, U2932, drug 1 μM, (−)Betalutin, Dy6, read-out: Growth inhibition (signal treated/control; 1 = no change)

Structure (SMILES): Cc1csc(-c2nnc(Nc3ccc(Oc4ncccc4-c4ccnc(N)n4)cc3)c3ccccc23)c1 [AMG 900]
- viability at 0.1 µM (RIVA cells; RIVA, +Betalutin, Dy3): 22%
- viability at 0.1 µM (RIVA cells; RIVA, +Betalutin, Dy4): 16%
- viability at 0.1 µM (RIVA cells; RIVA, +Betalutin, Dy5): 9%
- viability at 0.1 µM (RIVA cells; RIVA, +Betalutin, Dy6): 8%
- viability at 0.1 µM (RIVA cells; RIVA, −Betalutin, Dy3): 82%
- viability at 0.1 µM (RIVA cells; RIVA, −Betalutin, Dy4): 85%
- viability at 0.1 µM (RIVA cells; RIVA, −Betalutin, Dy5): 65%
- viability at 0.1 µM (RIVA cells; RIVA, −Betalutin, Dy6): 51%
- viability at 1 µM (RIVA cells; [1]): 9%
- viability at 1 µM (RIVA cells; [2]): 8%
- viability at 1 µM (RIVA cells; [3]): 5%
- viability at 1 µM (RIVA cells; [4]): 4%
- viability at 1 µM (RIVA cells; [5]): 60%
- viability at 1 µM (RIVA cells; [6]): 57%
- viability at 1 µM (RIVA cells; [7]): 49%
- viability at 1 µM (RIVA cells; [8]): 40%
- viability at 0.1 µM (U2932 cells; [9]): 89%
- viability at 0.1 µM (U2932 cells; [10]): 78%
- viability at 0.1 µM (U2932 cells; [11]): 77%
- viability at 0.1 µM (U2932 cells; [12]): 52%
- viability at 0.1 µM (U2932 cells; [13]): 96%
- viability at 0.1 µM (U2932 cells; [14]): 97%
- viability at 0.1 µM (U2932 cells; [15]): 92%
- viability at 0.1 µM (U2932 cells; [16]): 72%
- viability at 1 µM (U2932 cells; [17]): 77%
- viability at 1 µM (U2932 cells; [18]): 77%
- viability at 1 µM (U2932 cells; [19]): 80%
- viability at 1 µM (U2932 cells; [20]): 58%
- viability at 1 µM (U2932 cells; [21]): 83%
- viability at 1 µM (U2932 cells; [22]): 96%
- viability at 1 µM (U2932 cells; [23]): 96%
- viability at 1 µM (U2932 cells; [24]): 81%
- Synergy for the combination with Betalutin (U2932 cells; U2932, drug 100 nM): Bliss + Z-score
- Synergy for the combination with Betalutin (U2932 cells; U2932, drug 1 μM): Z-score

Structure (SMILES): NC(=O)Nc1cc(-c2cccc(F)c2)sc1C(=O)N[C@H]1CCCNC1 [AZD7762]
- viability at 1 µM (RIVA cells): 3%
- Growth inhibition (signal treated/control; 1 = no change) (RIVA cells; human): 0.34
- viability at 1 µM (U2932 cells; U2932, read-out: Growth inhibition (signal treated/control; 1 = no change)): 4%
- Synergy for the combination with Betalutin (U2932 cells; U2932, drug 100 nM): Bliss + Z-score
- Growth inhibition (signal treated/control; 1 = no change) (U2932 cells; human): 0.03

Structure (SMILES): Cc1nc(N)sc1-c1ccnc(Nc2ccc(N3CCOCC3)cc2)n1 [CYC116]
- viability at 0.1 µM (RIVA cells; RIVA, +Betalutin, Dy3): 13%
- viability at 0.1 µM (RIVA cells; RIVA, +Betalutin, Dy4): 10%
- viability at 0.1 µM (RIVA cells; RIVA, +Betalutin, Dy5): 6%
- viability at 0.1 µM (RIVA cells; RIVA, +Betalutin, Dy6): 6%
- viability at 0.1 µM (RIVA cells; RIVA, −Betalutin, Dy3): 93%
- viability at 0.1 µM (RIVA cells; RIVA, −Betalutin, Dy4): 94%
- viability at 0.1 µM (RIVA cells; RIVA, −Betalutin, Dy5): 114%
- viability at 0.1 µM (RIVA cells; RIVA, −Betalutin, Dy6): 92%
- viability at 1 µM (RIVA cells; [1]): 22%
- viability at 1 µM (RIVA cells; [2]): 20%
- viability at 1 µM (RIVA cells; [3]): 14%
- viability at 1 µM (RIVA cells; [4]): 14%
- viability at 1 µM (RIVA cells; [5]): 62%
- viability at 1 µM (RIVA cells; [6]): 78%
- viability at 1 µM (RIVA cells; [7]): 70%
- viability at 1 µM (RIVA cells; [8]): 65%
- viability at 0.1 µM (U2932 cells; [9]): 92%
- viability at 0.1 µM (U2932 cells; [10]): 94%
- viability at 0.1 µM (U2932 cells; [11]): 80%
- viability at 0.1 µM (U2932 cells; [12]): 75%
- viability at 0.1 µM (U2932 cells; [13]): 94%
- viability at 0.1 µM (U2932 cells; [14]): 97%
- viability at 0.1 µM (U2932 cells; [15]): 106%
- viability at 0.1 µM (U2932 cells; [16]): 121%
- viability at 1 µM (U2932 cells; [17]): 72%
- viability at 1 µM (U2932 cells; [18]): 82%
- viability at 1 µM (U2932 cells; [19]): 74%
- viability at 1 µM (U2932 cells; [20]): 56%
- viability at 1 µM (U2932 cells; [21]): 85%
- viability at 1 µM (U2932 cells; [22]): 89%
- viability at 1 µM (U2932 cells; [23]): 83%
- viability at 1 µM (U2932 cells; [24]): 61%
- Synergy for the combination with Betalutin (U2932 cells; U2932, drug 100 nM): Bliss + Z-score
- Synergy for the combination with Betalutin (U2932 cells; U2932, drug 1 μM): Z-score

Source: US20210106703A1, “RADIOIMMUNOCONJUGATES IN COMBINATION WITH OTHER DRUGS AS TREATMENT AGAINST NHL” (Nordic Nanovector ASA, priority 2017, published 2021)
